Data from US6737383B1, “Herbicidal oxadiazolidines” (priority 1999, dated 2004).

How the values were obtained:
giant foxtail = test: Test B pre/postemergence giant foxtail; type: in vivo, Setaria faberii; conditions: for Plant response rating, Giant foxtail: Postemergence; for Giant foxtail plant response rating: Preemergence, scale of 0 to 10 where 0 is no effect and 10 is complete control
Summary of the method: (§1)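 Herbicidal effect was estimated by eye on a ten-point control scale after plants spent twelve to sixteen days in a greenhouse following soil or foliar treatment. Foliar sprays targeted plants at one to four leaves; all doses were formulated in a non-phytotoxic solvent with surfactant.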

bamyardgrass = test: Test B flood test barnyardgrass; type: in vivo, Echinochloa crus-galli; conditions: Pre-emergence
Summary of the method: (§2)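 Each value is a visual injury score relative to controls, with 10 meaning complete control and 0 no effect. Evaluation took place twelve to sixteen days after the 2-leaf-stage plants were treated and kept in the greenhouse.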

morningglory = test: Test B pre/postemergence morningglory; type: in vivo, Ipomoea hederacea; conditions: for Plant response rating, Morningglory: Postemergence; for Morningglory plant response rating: scale of 0 to 10 where 0 is no effect and 10 is complete control
Summary of the method: as §1

cocklebur = test: Test B pre/postemergence cocklebur; type: in vivo, Xanthium strumarium; conditions: for Plant response rating, Cocklebur: Postemergence; for Cocklebur plant response rating: scale of 0 to 10 where 0 is no effect and 10 is complete control
Summary of the method: as §1

duck salad = test: Test B flood test duck salad; type: in vivo, Heteranthera limosa; conditions: Pre-emergence
Summary of the method: as §2

pigweed = test: Test B pre/postemergence pigweed; type: in vivo, Amaranthus retroflexus; conditions: for Plant response rating, Redroot pigweed: Postemergence; for Redroot pigweed plant response rating: scale of 0 to 10 where 0 is no effect and 10 is complete control
Summary of the method: as §1

blackgrass = test: Test B pre/postemergence blackgrass; type: in vivo, Alopecurus myosuroides; conditions: for Plant response rating, Blackgrass: Postemergence
Summary of the method: as §1

rice = test: Test B flood test rice; type: in vivo, Oryza sativa; conditions: Pre-emergence
Summary of the method: as §2

crabgrass = test: Test B pre/postemergence crabgrass; type: in vivo, Digitaria sanguinalis; conditions: for Plant response rating, Crabgrass: Postemergence; for Crabgrass plant response rating: scale of 0 to 10 where 0 is no effect and 10 is complete control
Summary of the method: as §1

rape = test: Test B pre/postemergence rape; type: in vivo, Brassica napus; conditions: for Plant response rating, Rape: Postemergence; for Rape plant response rating: scale of 0 to 10 where 0 is no effect and 10 is complete control
Summary of the method: as §1

surinam grass = test: Test B pre/postemergence surinam grass; type: in vivo, Brachiaria decumbens; conditions: for Plant response rating, B. signalgrass: Postemergence
Summary of the method: as §1

wild oat = test: Test B pre/postemergence wild oat; type: in vivo, Avena fatua; conditions: for Plant response rating, Wild oats: Postemergence; for Wild oats plant response rating: scale of 0 to 10 where 0 is no effect and 10 is complete control
Summary of the method: as §1

bedstraw = test: Test B pre/postemergence bedstraw; type: in vivo, Galium aparine; conditions: for Plant response rating, Bedstraw: Postemergence
Summary of the method: as §1

soybean = test: Test B pre/postemergence soybean; type: in vivo, Glycine max; conditions: for Plant response rating, Soybean: Postemergence; for Soybean plant response rating: scale of 0 to 10 where 0 is no effect and 10 is complete control
Summary of the method: as §1

sugar beet = test: Test B pre/postemergence sugar beet; type: in vivo, Beta vulgaris; conditions: for Plant response rating, Sugarbeets: Postemergence; for Sugarbeets plant response rating: scale of 0 to 10 where 0 is no effect and 10 is complete control
Summary of the method: as §1

corn = test: Test B pre/postemergence corn; type: in vivo, Zea mays; conditions: for Plant response rating, Corn: Postemergence; for Corn plant response rating: scale of 0 to 10 where 0 is no effect and 10 is complete control
Summary of the method: as §1

purple nutsedge = test: Test B pre/postemergence purple nutsedge; type: in vivo, Cyperus rotundus; conditions: for Plant response rating, Nutsedge: Postemergence; for Nutsedge plant response rating: scale of 0 to 10 where 0 is no effect and 10 is complete control
Summary of the method: as §1

wheat = test: Test B pre/postemergence wheat; type: in vivo, Triticum aestivum; conditions: for Plant response rating, Wheat: Postemergence; for Wheat plant response rating: scale of 0 to 10 where 0 is no effect and 10 is complete control
Summary of the method: as §1

velvetleaf = test: Test B pre/postemergence velvetleaf; type: in vivo, Abutilon theophrasti; conditions: for Plant response rating, Velvetleaf: Postemergence; for Velvetleaf plant response rating: scale of 0 to 10 where 0 is no effect and 10 is complete control
Summary of the method: as §1

smallflower flatsedge = test: Test B flood test smallflower flatsedge; type: in vivo, Cyperus difformis; conditions: Pre-emergence
Summary of the method: as §2

[1] = Rate 125 g/ha, scale 0 to 10, 0 is no effect, 10 is complete control
[2] = Rate 500 g/ha, scale 0 to 10, 0 no effect, 10 complete control
[3] = Rate 1000 g/ha, scale 0 to 10 (0 no effect, 10 complete control)
[4] = Rate 125 g/ha, flood test species, scale 0 to 10 where 0 is no effect and 10 is complete control
[5] = Rate 250 g/ha, flood-test species, scale 0 to 10, 0 is no effect, 10 is complete control
[6] = Rate 500 g/ha, flood test species, scale 0 to 10 (0 no effect, 10 complete control)
[7] = Preemergence, Rate 250 g/ha, scale of 0 to 10 where 0 is no effect and 10 is complete control
[8] = Preemergence, Rate 500 g/ha, scale of 0 to 10 where 0 is no effect and 10 is complete control
[9] = Rate 250 g/ha, scale of 0 to 10 where 0 is no effect and 10 is complete control

CCOC(=O)C(C)N(C(=O)n1oc(=O)n(-c2c(C)cccc2OC)c1=O)c1ccc(F)cc1 (centres unmarked) [Compound 331]
0: Plant response rating, Giant foxtail (giant foxtail; [1]) | Giant foxtail plant response rating (giant foxtail; Rate 250 g/ha) | Giant foxtail plant response rating (giant foxtail; Rate 500 g/ha) | Plant response rating, Giant foxtail (giant foxtail; [2]) | Barnyardgrass plant response rating (bamyardgrass; [3]) | Barnyardgrass plant response rating (bamyardgrass; [4]) | Barnyardgrass plant response rating (bamyardgrass; [5]) | Barnyardgrass plant response rating (bamyardgrass; [6]) | Plant response rating, Morningglory (morningglory; [1]) | Morningglory plant response rating (0 to 10 scale) (morningglory; Preemergence, Rate 125 g/ha) | Morningglory plant response rating (morningglory; Preemergence, Rate 250 g/ha) | Morningglory plant response rating (morningglory; Preemergence, Rate 500 g/ha) | Plant response rating, Morningglory (morningglory; [2]) | Plant response rating, Cocklebur (cocklebur; [1]) | Cocklebur plant response rating (0 to 10 scale) (cocklebur; Preemergence, Rate 125 g/ha) | Cocklebur plant response rating (cocklebur; Preemergence, Rate 250 g/ha) | Cocklebur plant response rating (cocklebur; Preemergence, Rate 500 g/ha) | Plant response rating, Cocklebur (cocklebur; [2]) | Ducksalad plant response rating (duck salad; [3]) | Ducksalad plant response rating (duck salad; [4]) | Ducksalad plant response rating (duck salad; [5]) | Ducksalad plant response rating (duck salad; [6]) | Plant response rating, Redroot pigweed (pigweed; [1]) | Redroot pigweed plant response rating (0 to 10 scale) (pigweed; Preemergence, Rate 125 g/ha) | Redroot pigweed plant response rating (pigweed; Preemergence, Rate 250 g/ha) | Redroot pigweed plant response rating (pigweed; Preemergence, Rate 500 g/ha) | Plant response rating, Redroot pigweed (pigweed; [2]) | Plant response rating, Blackgrass (blackgrass; [1]) | Blackgrass plant response rating (0 to 10 scale) (blackgrass; Preemergence, Rate 125 g/ha) | Blackgrass plant response rating (blackgrass; [7]) | Blackgrass plant response rating (blackgrass; [8]) | Plant response rating, Blackgrass (blackgrass; [9]) | Plant response rating, Blackgrass (blackgrass; [2]) | Rice plant response rating (rice; [3]) | Rice plant response rating (rice; [4]) | Rice plant response rating (rice; [5]) | Rice plant response rating (rice; [6]) | Plant response rating, Crabgrass (crabgrass; [1]) | Crabgrass plant response rating (0 to 10 scale) (crabgrass; Preemergence, Rate 125 g/ha) | Crabgrass plant response rating (crabgrass; Preemergence, Rate 250 g/ha) | Crabgrass plant response rating (crabgrass; Preemergence, Rate 500 g/ha) | Plant response rating, Crabgrass (crabgrass; [2]) | Plant response rating, Rape (rape; [1]) | Rape plant response rating (0 to 10 scale) (rape; Preemergence, Rate 125 g/ha) | Rape plant response rating (rape; Preemergence, Rate 250 g/ha) | Rape plant response rating (rape; Preemergence, Rate 500 g/ha) | Plant response rating, Rape (rape; [2]) | Plant response rating, B. signalgrass (surinam grass; [1]) | B. signalgrass plant response rating (0 to 10 scale, 0 is no effect, 10 is complete control) (surinam grass; Preemergence, Rate 125 g/ha) | B. signalgrass plant response rating (surinam grass; [7]) | B. signalgrass plant response rating (surinam grass; [8]) | Plant response rating, B. signalgrass (surinam grass; [9]) | Plant response rating, B. signalgrass (surinam grass; [2]) | Plant response rating, Wild oats (wild oat; [1]) | Wild oats plant response rating (0 to 10 scale) (wild oat; Preemergence, Rate 125 g/ha) | Wild oats plant response rating (wild oat; Preemergence, Rate 250 g/ha) | Wild oats plant response rating (wild oat; Preemergence, Rate 500 g/ha) | Plant response rating, Wild oats (wild oat; [2]) | Plant response rating, Bedstraw (bedstraw; [1]) | Bedstraw plant response rating (bedstraw; [8]) | Plant response rating, Bedstraw (bedstraw; [2]) | Plant response rating, Soybean (soybean; [1]) | Soybean plant response rating (0 to 10 scale) (soybean; Preemergence, Rate 125 g/ha) | Soybean plant response rating (soybean; Preemergence, Rate 250 g/ha) | Soybean plant response rating (soybean; Preemergence, Rate 500 g/ha) | Plant response rating, Soybean (soybean; [2]) | Plant response rating, Sugarbeets (sugar beet; [1]) | Sugarbeets plant response rating (0 to 10 scale) (sugar beet; Preemergence, Rate 125 g/ha) | Sugarbeets plant response rating (sugar beet; Preemergence, Rate 250 g/ha) | Sugarbeets plant response rating (sugar beet; Preemergence, Rate 500 g/ha) | Plant response rating, Sugarbeets (sugar beet; [2]) | Plant response rating, Corn (corn; [1]) | Corn plant response rating (0 to 10 scale) (corn; Preemergence, Rate 125 g/ha) | Corn plant response rating (corn; Preemergence, Rate 250 g/ha) | Corn plant response rating (corn; Preemergence, Rate 500 g/ha) | Plant response rating, Corn (corn; [2]) | Plant response rating, Nutsedge (purple nutsedge; [1]) | Nutsedge plant response rating (0 to 10 scale) (purple nutsedge; Preemergence, Rate 125 g/ha) | Nutsedge plant response rating (purple nutsedge; Preemergence, Rate 250 g/ha) | Nutsedge plant response rating (purple nutsedge; Preemergence, Rate 500 g/ha) | Plant response rating, Nutsedge (purple nutsedge; [2]) | Plant response rating, Wheat (wheat; [1]) | Wheat plant response rating (0 to 10 scale) (wheat; Preemergence, Rate 125 g/ha) | Wheat plant response rating (wheat; Preemergence, Rate 250 g/ha) | Wheat plant response rating (wheat; Preemergence, Rate 500 g/ha) | Plant response rating, Wheat (wheat; [2]) | Plant response rating, Velvetleaf (velvetleaf; [1]) | Velvetleaf plant response rating (0 to 10 scale) (velvetleaf; Preemergence, Rate 125 g/ha) | Velvetleaf plant response rating (velvetleaf; Preemergence, Rate 250 g/ha) | Velvetleaf plant response rating (velvetleaf; Preemergence, Rate 500 g/ha) | Plant response rating, Velvetleaf (velvetleaf; [2]) | S. Flatsedge plant response rating (smallflower flatsedge; [3]) | S. Flatsedge plant response rating (smallflower flatsedge; [4]) | S. Flatsedge plant response rating (smallflower flatsedge; [5]) | S. Flatsedge plant response rating (smallflower flatsedge; [6])
